Here are results for 13 compounds from PubChem BioAssay AID248 (DTP/NCI, 2004).

“And” between values parts separate entries of the source, which are not always exact repeats. Equal entries are not always repeated. Toxic doses and inconclusive results are not listed.

For this test, the system named is L1210 leukemia ip in BDF1 mice, survival T/C. Briefly: NCI In Vivo Anticancer Drug Screen. Data for tumor model L1210 Leukemia (intraperitoneal) in B6D2F1 (BDF1) mice. Particulars: endpoint: mean survival time, higher = longer survival. The gist of the method:
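Tumor cells were implanted, animals were treated, and survival was followed. The result divides the treated measurement by the vehicle-control measurement.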

Where [1] appears, read: dose: 100.0 mg/kg/injection, schedule: Q04DX003 (ip), vehicle: Klucel (hydroxypropylcellulose) (HPC).
The mark [2] stands for this setting: dose: 200.0 mg/kg/injection, schedule: Q04DX003 (ip), vehicle: Klucel (hydroxypropylcellulose) (HPC).
The mark [3] stands for this setting: dose: 400.0 mg/kg/injection, schedule: Q04DX003 (ip), vehicle: Klucel (hydroxypropylcellulose) (HPC).
Setting [4] is: dose: 50.0 mg/kg/injection, schedule: Q01DX009 (ip), vehicle: Klucel (hydroxypropylcellulose) (HPC).
[5] abbreviates: dose: 100.0 mg/kg/injection, schedule: Q01DX009 (ip), vehicle: Klucel (hydroxypropylcellulose) (HPC).
The mark [6] stands for this setting: dose: 200.0 mg/kg/injection, schedule: Q01DX009 (ip), vehicle: Klucel (hydroxypropylcellulose) (HPC).
[7] abbreviates: dose: 400.0 mg/kg/injection, schedule: Q01DX009 (ip), vehicle: Klucel (hydroxypropylcellulose) (HPC).

For `N#[N+]c1c(C(=O)O)[nH]c(=O)[nH]c1=O`, the T/C is, setting by setting: (dose: 6.25 mg/kg/injection, schedule: Q01DX009 (ip), vehicle: saline) 99 % of control; (dose: 10.0 mg/kg/injection, schedule: Q01DX001 (ip), vehicle: carboxymethylcellulose (CMC)) 92 % of control; (dose: 12.5 mg/kg/injection, schedule: Q01DX009 (ip), vehicle: saline with Tween-80) 98 % of control; (dose: 12.5 mg/kg/injection, schedule: Q01DX009 (ip), vehicle: saline) 96 % of control; (dose: 12.5 mg/kg/injection, schedule: Q01DX Z (ip), vehicle: methylcellulose (MC)) 94 % of control; (dose: 20.0 mg/kg/injection, schedule: Q01DX001 (ip), vehicle: carboxymethylcellulose (CMC)) 95 % of control. Besides, the T/C is 96 % of control (dose: 20.0 mg/kg/injection, schedule: Q01DX009 (ip), vehicle: carboxymethylcellulose (CMC)); 102 % of control (dose: 25.0 mg/kg/injection, schedule: Q01DX009 (ip), vehicle: saline with Tween-80); 98 % of control (dose: 25.0 mg/kg/injection, schedule: Q01DX009 (ip), vehicle: saline); 101 % of control (dose: 25.0 mg/kg/injection, schedule: Q01DX Z (ip), vehicle: methylcellulose (MC)); 104 % of control (dose: 40.0 mg/kg/injection, schedule: Q01DX001 (ip), vehicle: carboxymethylcellulose (CMC)); 108 % of control (dose: 40.0 mg/kg/injection, schedule: Q01DX009 (ip), vehicle: carboxymethylcellulose (CMC)). The T/C runs as follows: (dose: 50.0 mg/kg/injection, schedule: Q01DX009 (ip), vehicle: saline with Tween-80) 95 % of control and 92 % of control; (dose: 50.0 mg/kg/injection, schedule: Q01DX009 (ip), vehicle: saline) 99 % of control; (dose: 50.0 mg/kg/injection, schedule: Q01DX Z (ip), vehicle: carboxymethylcellulose (CMC)) 155 % of control; (dose: 50.0 mg/kg/injection, schedule: Q01DX Z (ip), vehicle: methylcellulose (MC)) 121 % of control; (dose: 80.0 mg/kg/injection, schedule: Q01DX001 (ip), vehicle: carboxymethylcellulose (CMC)) 101 % of control; (dose: 80.0 mg/kg/injection, schedule: Q01DX009 (ip), vehicle: carboxymethylcellulose (CMC)) 96 % of control. Also, the T/C was 107 % of control and 92 % of control (dose: 100.0 mg/kg/injection, schedule: Q01DX009 (ip), vehicle: saline with Tween-80); 103 % of control (dose: 100.0 mg/kg/injection, schedule: Q01DX009 (ip), vehicle: saline); 100 % of control (dose: 100.0 mg/kg/injection, schedule: Q01DX Z (ip), vehicle: methylcellulose (MC)); 95 % of control (dose: 100.0 mg/kg/injection, schedule: Q04DX003 (ip), vehicle: saline with Tween-80); 90 % of control (dose: 150.0 mg/kg/injection, schedule: Q01DX009 (ip), vehicle: saline); 97 % of control (dose: 200.0 mg/kg/injection, schedule: Q01DX009 (ip), vehicle: saline with Tween-80). Besides, the T/C (dose: 200.0 mg/kg/injection, schedule: Q04DX003 (ip), vehicle: saline with Tween-80) is 97 % of control; the T/C (dose: 300.0 mg/kg/injection, schedule: Q01DX009 (ip), vehicle: saline) was 101 % of control; the T/C (dose: 400.0 mg/kg/injection, schedule: Q04DX003 (ip), vehicle: saline with Tween-80) was 103 % of control; the T/C (dose: 800.0 mg/kg/injection, schedule: Q04DX003 (ip), vehicle: saline with Tween-80) was 97 % of control.

As to `CCCCCCCCCCCCCCCCCCSc1ccccc1`, the T/C is, setting by setting: under setting [1], 93 % of control; under setting [2], 93 % of control; under setting [3], 94 % of control.

Regarding `S=P(Nc1ccccc1)(Nc1ccccc1)Nc1ccccc1`, the T/C was 96 % of control under setting [4], 98 % of control under setting [5] and 98 % of control under setting [6].

On to `Cc1ccccc1NC(=S)N(C)C`, for which the T/C (dose: 25.0 mg/kg/injection, schedule: Q01DX009 (ip), vehicle: Klucel (hydroxypropylcellulose) (HPC)) is 103 % of control; the T/C (dose: 25.0 mg/kg/injection, schedule: Q04DX003 (ip), vehicle: Klucel (hydroxypropylcellulose) (HPC)) is 98 % of control; the T/C under setting [4] is 104 % of control; the T/C (dose: 50.0 mg/kg/injection, schedule: Q04DX003 (ip), vehicle: Klucel (hydroxypropylcellulose) (HPC)) was 91 % of control; the T/C under setting [5] was 103 % of control; the T/C under setting [1] was 95 % of control and 103 % of control.

In the case of `Cc1ccc2ccc3c4ccccc4ccc3[n+]2c1`, the T/C was 102 % of control (dose: 10.0 mg/kg/injection, schedule: Q01DX001 (ip), vehicle: saline) and 98 % of control (dose: 20.0 mg/kg/injection, schedule: Q01DX001 (ip), vehicle: saline).

Take `CC(=O)OCCCc1ccccc1`: the T/C is, setting by setting: under setting [5], 94 % of control; under setting [1], 98 % of control; under setting [6], 95 % of control; under setting [2], 97 % of control; under setting [7], 94 % of control; under setting [3], 94 % of control.

Turning to `COC(=O)C(CCC(=O)OC(C)(C)C)NC(=O)C(F)(F)F` (stereo not given), the T/C is 94 % of control (dose: 50.0 mg/kg/injection, schedule: Q01DX001 (ip), vehicle: Klucel (hydroxypropylcellulose) (HPC)); 100 % of control (dose: 100.0 mg/kg/injection, schedule: Q01DX001 (ip), vehicle: Klucel (hydroxypropylcellulose) (HPC)); 97 % of control (dose: 200.0 mg/kg/injection, schedule: Q01DX001 (ip), vehicle: Klucel (hydroxypropylcellulose) (HPC)).

Turning to `CCOC(=O)c1n[nH]c2ccccc12`, the T/C by setting is: (dose: 100.0 mg/kg/injection, schedule: Q04DX002 (ip), vehicle: saline with Tween-80) 101 % of control; (dose: 200.0 mg/kg/injection, schedule: Q04DX002 (ip), vehicle: saline with Tween-80) 106 % of control; (dose: 400.0 mg/kg/injection, schedule: Q04DX002 (ip), vehicle: saline with Tween-80) 97 % of control.

In the case of `Nc1nc2c(c(-c3ccc(Cl)cc3)n1)CN(CCC(=O)O)C2=O`, the T/C runs as follows: (dose: 100.0 mg/kg/injection, schedule: Q01DX001 (ip), vehicle: saline) 100 % of control; (dose: 100.0 mg/kg/injection, schedule: Q04DX003 (ip), vehicle: saline) 98 % of control; (dose: 200.0 mg/kg/injection, schedule: Q01DX001 (ip), vehicle: saline) 105 % of control; (dose: 200.0 mg/kg/injection, schedule: Q04DX003 (ip), vehicle: saline) 98 % of control; (dose: 400.0 mg/kg/injection, schedule: Q01DX001 (ip), vehicle: saline) 102 % of control; (dose: 400.0 mg/kg/injection, schedule: Q04DX003 (ip), vehicle: saline) 98 % of control.

Regarding `CCC1(Br)OC1=O` (stereo not given), the T/C (dose: 50.0 mg/kg/injection, schedule: Q01DX009 (ip), vehicle: acetone) was 100 % of control; the T/C (dose: 100.0 mg/kg/injection, schedule: Q01DX009 (ip), vehicle: acetone) is 99 % of control; the T/C (dose: 100.0 mg/kg/injection, schedule: Q04DX003 (ip), vehicle: acetone) was 97 % of control; the T/C (dose: 200.0 mg/kg/injection, schedule: Q04DX003 (ip), vehicle: acetone) is 98 % of control.

Take `CC(=O)Nc1cc(Cl)c(Cl)c([N+](=O)[O-])c1`: the T/C runs as follows: under setting [5], 100 % of control; under setting [6], 97 % of control.

As to `O=[N+]([O-])c1cccc(C=Nc2ccccc2F)c1`, the T/C under setting [5] is 94 % of control, the T/C under setting [6] was 98 % of control and the T/C under setting [7] was 98 % of control.

Regarding `OC1(Cc2ccccc2)CCCCCC1`, the T/C by setting is: (dose: 100.0 mg/kg/injection, schedule: Q01DX005 (ip), vehicle: other) 118 % of control; (dose: 100.0 mg/kg/injection, schedule: Q01DX009 (ip), vehicle: other) 103 % of control; (dose: 200.0 mg/kg/injection, schedule: Q01DX005 (ip), vehicle: other) 93 % of control; (dose: 200.0 mg/kg/injection, schedule: Q01DX009 (ip), vehicle: other) 118 % of control; (dose: 400.0 mg/kg/injection, schedule: Q01DX005 (ip), vehicle: other) 93 % of control; (dose: 400.0 mg/kg/injection, schedule: Q01DX009 (ip), vehicle: other) 100 % of control.
